Results from US9018214B2, “Bicyclic heterocycle compounds and their uses in therapy” (Astex Therapeutics Limited, priority 2011, dated 2015).
Counter-ions that a name gives are not always drawn. Like-named read-outs stand apart in the source and are kept apart here.

Tests used:
[1] = target: BIR3 domain of human cIAP-1 (residues 267-363) (Homo sapiens (Human), UniProt Q13490); test: cIAP-1 in vitro competitive displacement binding assay (fluorescence polarization; Probe A AVPIK(5&6FAM)-amide or Probe B AbuRPFK(5&6FAM)-amide)
[2] = target: BIR3 domain of human XIAP (residues 252-350) (Homo sapiens (Human), UniProt P98170); test: XIAP in vitro competitive displacement binding assay (fluorescence polarization); details: for IC50: read-out: IC50 or PI Xiap: IC50; for inhibition at 0.04 µM: 1 h, read-out: IC50 or PI Xiap: PI
[3] = system: EVSA-T (human breast carcinoma); test: Anti-proliferative activity, Alamar Blue assay, EVSA-T; assay type: cell-based; details: Homo sapiens, EVSA-T, read-out: EVSA-T prolif (EC50)
[4] = Probe B AbuRPFK(5&6FAM)-amide, read-out: IC50 or PI cIAP1: IC50
[5] = 3 h, Probe B, @ 0.012 μM, read-out: IC50 or PI cIAP1: PI
[6] = 3 h, read-out: IC50 or PI cIAP1: PI

Row | Structure (SMILES) | IC50 [1, 4] | IC50 [2] | EC50 ([3]; 72 hours, Alamar Blue) | inhibition at […] [1, 6] | IC50 [1] | further results
1 | C[C@@H]1CN(CC(=O)N2C[C@@](C)(c3ccccc3)c3ccc(C#N)cc32)[C@@H](C(=O)N2CCOCC2)CN1 [Example 152, (3S)-3-Methyl-1-{2-[(2R,5R)-5-methyl-2-[(morpholin-4-yl)carbonyl]piperazin-1-yl]acetyl}-3-phenyl-2,3-dihydro-1H-indole-6-carbonitrile] | 110 nM | 65 nM | 3700 nM |  |  | 
2 | C[C@@H]1CN(CC(=O)N2C[C@](C)(c3ccccc3)c3ccc(C#N)cc32)[C@@H](C(=O)N2CCOCC2)CN1 [Example 153, (3R)-3-Methyl-1-{2-[(2R,5R)-5-methyl-2-[(morpholin-4-yl)carbonyl]piperazin-1-yl]acetyl}-3-phenyl-2,3-dihydro-1H-indole-6-carbonitrile] | 160 nM |  | 4000 nM |  |  | inhibition at 0.04 µM ([2]; @ 0.04 μM): 54%
3 | C[C@@H]1CN(CC(=O)N2CC(C)(C)c3cnc(Cc4ccccc4)cc32)[C@@H](Cn2cc(F)cn2)CN1 [Example 157, 1-{6-Benzyl-3,3-dimethyl-1H,2H,3H-pyrrolo[3,2-c]pyridin-1-yl}-2-[(2R,5R)-2-[(4-fluoro-1H-pyrazol-1-yl)methyl]-5-methylpiperazin-1-yl]ethan-1-one hydrochloride] |  | 65 nM | 95 nM |  |  | inhibition at […] [1, 5]: 78%
4 | C[C@@H]1CN(CC(=O)N2CC(C)(C)c3cnc(C(F)(F)c4ccccc4)cc32)[C@@H](C(=O)N(C)C)CN1 [Example 158, (2R,5R)-1-(2-{6-[Difluoro(phenyl)methyl]-3,3-dimethyl-1H,2H,3H-pyrrolo[3,2-c]pyridin-1-yl}-2-oxoethyl)-N,N,5-trimethylpiperazine-2-carboxamide dihydrochloride] |  | 49 nM |  |  |  | inhibition at 0.01 µM [1, 6]: 51%; EC50 ([3]; 72 h): 300 nM
5 | Cc1cnn(C[C@H]2CN[C@H](C)CN2CC(=O)N2CC(C)(C)c3cnc(C(F)(F)c4ccccc4)cc32)c1 [Example 159, 1-{6-[Difluoro(phenyl)methyl]-3,3-dimethyl-1H,2H,3H-pyrrolo[3,2-c]pyridin-1-yl}-2-[(2R,5R)-5-methyl-2-[(4-methyl-1H-pyrazol-1-yl)methyl]piperazin-1-yl]ethan-1-one dihydrochloride] |  |  | 120 nM | 72% |  | inhibition at 0.04 µM [2]: 56%
6 | Cc1cnn(C[C@H]2CN[C@H](C)CN2CC(=O)N2CC3(Cc4ccccc4C3)c3ccc(C#N)cc32)c1 [Example 161, 1′-{2-[(2R,5R)-5-Methyl-2-[(4-methyl-1H-pyrazol-1-yl)methyl]piperazin-1-yl]acetyl}-1,1′,2′,3-tetrahydrospiro[indene-2,3′-indole]-6′-carbonitrile] | 110 nM | 60 nM | 1700 nM |  | < 1000 nM | 
7 | COC[C@H]1CN[C@H](C)CN1CC(=O)N1CC(C)(c2cccnc2)c2ccc(Cc3ccccc3)cc21 (stereo partly drawn) [Example 163, 1-[6-Benzyl-3-methyl-3-(pyridin-3-yl)-2,3-dihydro-1H-indol-1-yl]-2-[(2R,5R)-2-(methoxymethyl)-5-methylpiperazin-1-yl]ethan-1-one hydrochloride] | 13 nM | 160 nM | 450 nM |  | < 1000 nM | 
8 | C[C@@H]1CN(CC(=O)N2CC(C)(C)c3cnc(Cc4ccc(F)cc4F)cc32)[C@@H](C(=O)N(C)C)CN1 [Example 164, (2R,5R)-1-(2-{6-[(2,4-Difluorophenyl)methyl]-3,3-dimethyl-1H,2H,3H-pyrrolo[3,2-c]pyridin-1-yl}-2-oxoethyl)-N,N,5-trimethylpiperazine-2-carboxamide dihydrochloride] |  | 120 nM |  | 86% |  | EC50 ([3]; 72 h): 45 nM
9 | C[C@@H]1CN(CC(=O)N2CC(C)(C)c3cnc(Oc4ccccc4Cl)cc32)[C@@H](C(=O)N2CCOCC2)CN1 [Example 165, 1-[6-(2-Chlorophenoxy)-3,3-dimethyl-1H,2H,3H-pyrrolo[3,2-c]pyridin-1-yl]-2-[(2R,5R)-5-methyl-2-[(morpholin-4-yl)carbonyl]piperazin-1-yl]ethan-1-one dihydrochloride] |  |  |  |  | < 1000 nM | IC50 ([1]; read-out: IC50 or PI cIAP1: IC50): 14 nM; inhibition at 0.04 µM [2]: 65%; EC50 ([3]; 72 h): 650 nM
10 | COC[C@H]1CN[C@H](C)CN1CC(=O)N1CC(C)(C)c2c[n+]([O-])c(Cc3ccc(F)cc3F)cc21 [Example 166, 6-[(2,4-Difluorophenyl)methyl]-1-{2-[(2R,5R)-2-(methoxymethyl)-5-methylpiperazin-1-yl]acetyl}-3,3-dimethyl-1H,2H,3H-1,5λ^5-pyrrolo[3,2-c][1λ^5]pyridin-5-one hydrochloride] |  | 150 nM | 130 nM |  |  | inhibition at […] [1, 5]: 76%
11 | C[C@@H]1CN(CC(=O)N2CC(C)(C)c3c[n+]([O-])c(Cc4ccc(F)cc4F)cc32)[C@@H](C(=O)N(C)C)CN1 [Example 167, (2R,5R)-1-(2-{6-[(2,4-Difluorophenyl)methyl]-3,3-dimethyl-5-oxo-1H,2H,3H-1,5λ^5-pyrrolo[3,2-c][1λ^5]pyridin-1-yl}-2-oxoethyl)-N,N,5-trimethylpiperazine-2-carboxamide hydrochloride] |  | 100 nM | 260 nM |  |  | inhibition at […] [1, 5]: 84%
12 | C[C@@H]1CN(CC(=O)N2CC(C)(C)c3cnc(Cc4ccccc4)cc32)[C@@H](CN2CCCC2=O)CN1 [Example 172, 1-{[(2R,5R)-1-(2-{6-Benzyl-3,3-dimethyl-1H,2H,3H-pyrrolo[3,2-c]pyridin-1-yl}-2-oxoethyl)-5-methylpiperazin-2-yl]methyl}pyrrolidin-2-one dihydrochloride] |  |  | 56 nM | 78% |  | inhibition at 0.04 µM [2]: 58%
13 | C[C@@H]1CN(CC(=O)N2CC(C)(C)c3cnc(C(F)(F)c4ccccc4)cc32)[C@@H](CN2CCCC2=O)CN1 [Example 173, 1-{[(2R,5R)-1-(2-{6-[Difluoro(phenyl)methyl]-3,3-dimethyl-1H,2H,3H-pyrrolo[3,2-c]pyridin-1-yl}-2-oxoethyl)-5-methylpiperazin-2-yl]methyl}pyrrolidin-2-one dihydrochloride] |  |  | 36 nM | 80% |  | inhibition at 0.04 µM [2]: 73%
14 | COC[C@H]1CN[C@H](C)CN1CC(=O)N1C[C@](C)(c2cc(C)no2)c2ccc(Cc3ccccc3)cc21 [Example 174, 1-[(3R)-6-Benzyl-3-methyl-3-(3-methyl-1,2-oxazol-5-yl)-2,3-dihydro-1H-indol-1-yl]-2-[(2R,5R)-2-(methoxymethyl)-5-methylpiperazin-1-yl]ethan-1-one hydrochloride] | 190 nM | 760 nM | 2500 nM |  | < 1000 nM | 
15 | COC[C@H]1CN[C@H](C)CN1CC(=O)N1C[C@@](C)(c2cc(C)no2)c2ccc(Cc3ccccc3)cc21 [Example 175, 1-[(3S)-6-Benzyl-3-methyl-3-(3-methyl-1,2-oxazol-5-yl)-2,3-dihydro-1H-indol-1-yl]-2-[(2R,5R)-2-(methoxymethyl)-5-methylpiperazin-1-yl]ethan-1-one hydrochloride] | 11 nM | 110 nM | 200 nM |  | < 1000 nM | 
16 | C[C@@H]1CN(CC(=O)N2CC(C)(C)c3cnc(C(F)(F)c4ccccc4)cc32)[C@@H](Cn2cc(F)cn2)CN1 [Example 176, 1-{6-[Difluoro(phenyl)methyl]-3,3-dimethyl-1H,2H,3H-pyrrolo[3,2-c]pyridin-1-yl}-2-[(2R,5R)-2-[(4-fluoro-1H-pyrazol-1-yl)methyl]-5-methylpiperazin-1-yl]ethan-1-one hydrochloride] |  |  | 26 nM |  |  | inhibition at […] [1, 5]: 70%; inhibition at 0.04 µM ([2]; @ 0.04 μM): 52%
17 | C[C@@H]1CN(CC(=O)N2CC(C)(C)c3cnc(Oc4ccccc4Cl)cc32)[C@@H](Cn2cc(F)cn2)CN1 [Example 177, 1-[6-(2-Chlorophenoxy)-3,3-dimethyl-1H,2H,3H-pyrrolo[3,2-c]pyridin-1-yl]-2-[(2R,5R)-2-[(4-fluoro-1H-pyrazol-1-yl)methyl]-5-methylpiperazin-1-yl]ethan-1-one hydrochloride] | 18 nM | 49 nM | 270 nM |  | < 1000 nM | 
18 | C[C@@H]1CN(CC(=O)N2CC(C)(C)c3cnc(C(F)(F)c4ccccc4)cc32)[C@@H](C(=O)N2CCOCC2)CN1 [Example 178, 1-{6-[Difluoro(phenyl)methyl]-3,3-dimethyl-1H,2H,3H-pyrrolo[3,2-c]pyridin-1-yl}-2-[(2R,5R)-5-methyl-2-[(morpholin-4-yl)carbonyl]piperazin-1-yl]ethan-1-one dihydrochloride] |  |  | 67 nM | 60% |  | inhibition at 0.04 µM [2]: 50%
19 | C[C@@H]1CN(CC(=O)N2CC(C)(C)c3cnc(Cc4ccc(F)cc4F)cc32)[C@@H](Cn2cccnc2=O)CN1 [Example 185, 1-{[(2R,5R)-1-(2-{6-[(2,4-Difluorophenyl)methyl]-3,3-dimethyl-1H,2H,3H-pyrrolo[3,2-c]pyridin-1-yl}-2-oxoethyl)-5-methylpiperazin-2-yl]methyl}-1,2-dihydropyrimidin-2-one dihydrochloride] |  | 77 nM |  | 94% |  | EC50 ([3]; 72 h): 10 nM
20 | CCC(F)(F)c1cnc2c(c1)N(C(=O)CN1C[C@@H](C)NC[C@@H]1CN1CCOC[C@H]1C)CC2(C)C [Example 186, 1-[6-(1,1-Difluoropropyl)-3,3-dimethyl-1H,2H,3H-pyrrolo[3,2-b]pyridin-1-yl]-2-[(2R,5R)-5-methyl-2-{[(3R)-3-methylmorpholin-4-yl]methyl}piperazin-1-yl]ethan-1-one, a hydrochloride salt] | 11 nM |  | 25 nM |  |  | inhibition at 0.04 µM ([2]; @ 0.04 μM): 59%
